# Source: publication PMC3912631, “Bench to Bed Evidences for Pharmacokinetic and Pharmacodynamic Interactions Involving Oseltamivir and Chinese Medicine” (Evidence-based Complementary and Alternative Medicine : eCAM, 2014)
# Where two headings read alike, the source gives them in different places.
# Assay: Rat pharmacokinetics of OA and OC in plasma and urine after oral OA alone or with CMF1
# Format: in vivo, Sprague-Dawley rats
# Conditions: for Tmax / Cmax / CL renal / half-life: male, Sprague-Dawley, in vivo, po, 30 mg/kg; for Tmax / Cmax / CL renal / half-life / AUC0–8 h / AUC0–inf / Renal recovery: oral, bid for 5 days; for Tmax: mean ± SD, read-out: T max (converted); for Cmax: read-out: C max; for CL renal: read-out: CL renal; for half-life: read-out: t 1/2, λz; for Renal recovery: urine over 8 h
# Description: The study was approved by the Animal Ethics Committee of The Chinese University of Hong Kong. Male Sprague-Dawley rats (230–250 g) were utilized and supplied by the Laboratory Animal Service Center at The Chinese University of Hong Kong. The rats were housed under standard conditions of temperature, humidity, and light and randomly divided into six groups with 10–12 rats in each group. […] The dose of 1.95 g/kg CMF1 is calculated based on the human dose recommended by the Chinese physicians and a doubled dose of CMF1 at […] is also used in the current study due to the potential large dosing range for Chinese medicine adopted in the practice. […]
# For dosing, OA (4 mg/mL) was freshly prepared by dissolving it in water and orally given to rats by gavage, bid (twice daily) for 4 days (9:00am and 6:00pm for each day), and CMF1 was also freshly suspended in water and then orally given to rats 2 h later of OA dosing (11:00 am and 8:00 pm for each day).
# For Groups of 1 to 3, a surgery for jugular vein cannulation was performed 1 h after CMF1 second dosing on day 4. A polyethylene catheter (0.50 mm ID, 1.00 mm OD, Portex Limited, Hythe, Kent, England) was cannulated into the right jugular vein under anesthesia. After surgery, the rat was placed in separated metabolic cage and allowed to recover and fasted overnight with free access to water. In the morning of day 5, blood samples (0.2 mL each) of the rats in the Groups 1–3 were collected via the catheter at 0, 15, 30, 60, 90, 120, 180, 240, 360, and 480 min after dosing of OA. After which, 0.2 mL of normal saline containing 20 units/mL of heparin was then injected into the catheter to flush the catheter. The collected blood samples were immediately placed in heparinized tubes containing dichlorvos (5 μL of 8 mg/mL dichlorvos in normal saline) for inhibition of carboxylesterase, followed by centrifugation to obtain the plasma and stored at −80°C. Urine samples were collected over 8 h postdose and combined with water used for rinsing the metabolic cage, further diluted to 200 mL, and then stored at −80°C until assay.
# The rat/human plasma and urine samples were treated and analyzed by an LC/MS/MS system as previously described. Briefly, 200 μL plasma/urine samples was mixed with cephalexin hydrate (internal standard, IS) working solution (final 2 μg/mL) and acidified with 1 mL of 10% perchloric acid in water (if necessary, dilution with blank human urine was required for urine samples). After mixing and centrifugation, the supernatant was loaded in prewashed Oasis MCX cartridge (1 cc, 30 mg, Waters) and the cartridge was rinsed subsequently with 1% formic acid, water, and methanol followed by vacuum dried for 20 min. The analytes were then eluted with 1 mL of 1% ammonia in methanol. The eluting solvent was dried by a vacuum concentrator and the residue was reconstituted with 200 μL of 0.1% formic acid : methanol (1 : 1 v/v) prior to HPLC/MS/MS analysis using an ABI 2000 Q-Trap triple quadrupole mass spectrometer (Applied Biosystems) coupled with PE-200 series micropumps and autosampler (Perkin-Elmer). The chromatographic separation was achieved by using a Nova-Pak CN HP column (75 × 3.9 mm i.d., 4 μm particle size, Waters) and the HPLC solvent system consisted of methanol (A) and 0.1% formic acid in water (B), with 50% A (for plasma samples) or 60% A (for urine samples) at 1 mL/min. The temperatures of autosampler and the analytical column were set at 4°C and ambient, respectively, and the sample injection volume was 20 μL. Prior to the mass spectrometric system, 60% of the LC eluent was split off and only 40% of the eluent was introduced into the ESI source.
# The plasma/urine OA and OC concentrations versus time profiles were analyzed using WinNonlin software standard edition version 2.1 (Pharsight Corporation). […] In human study, trough concentration (C trough) was defined as the minimum concentration obtained and was obtained at 12 h post-dose. […]
# [1] = Group 2: OA 30 mg/kg + CMF1 at 1.95 mg/kg
# [2] = Group 3: OA 30 mg/kg + CMF1 at 3.90 mg/kg
structure (smiles),measurement,setting,value
"CCC(CC)O[C@@H]1C=C(C(=O)O)C[C@H](N)[C@H]1NC(C)=O [OC, oseltamivir carboxylate]","decrease of C max, urinary recovery and AUC of OC and OC/OA AUC ratio in OA + CMF1 groups vs OA alone",dose-dependent,26%-27%
same,Tmax,Group 1: OA alone 30 mg/kg,1.75 h
same,Cmax,Group 1: OA alone 30 mg/kg,1650 ± 400 ng/mL
same,CL renal,Group 1: OA alone 30 mg/kg,6.33 ± 1.27 mL/min
same,half-life,Group 1: OA alone 30 mg/kg,2.53 ± 0.418 h
same,Tmax,[1],1.77 h
same,Cmax,[1],1360 ± 280 ng/mL
same,CL renal,[1],6.27 ± 1.76 mL/min
same,half-life,[1],2.44 ± 0.318 h
same,Tmax,[2],2 h
same,Cmax,[2],1190 ± 230 ng/mL
same,CL renal,[2],6.34 ± 0.69 mL/min
same,half-life,[2],2.61 ± 0.28 h
same,AUC0–8 h,Group 1: OA alone 30 mg/kg,418.81 ± 90.86 μg∗min/mL
same,AUC0–inf,Group 1: OA alone 30 mg/kg,485.45 ± 113.03 μg∗min/mL
same,AUC0–8 h,[1],344.13 ± 91.46 μg∗min/mL
same,AUC0–inf,[1],395.67 ± 109.41 μg∗min/mL
same,AUC0–8 h,[2],304.84 ± 40.32 μg∗min/mL
same,AUC0–inf,[2],359.21 ± 41.30 μg∗min/mL
same,Renal recovery,Group 1: OA alone 30 mg/kg,35.26 ± 5.40 % of dose
same,Renal recovery,[1],29.73 ± 7.33 % of dose
same,Renal recovery,[2],25.94 ± 3.09 % of dose
